Where two headings read alike, the source gives them in different places.
What was measured:
[1] = test system: all cancer cell lines (A2780, A2780cis, G361, A549, HeLa, LNCaP, THP-1); experiment: Antiproliferative effect of starting compounds on all cancer cell lines; settings: 24 h, read-out: IC50, in vitro cytotoxicity of starting compounds on all cancer cell lines
[2] = test system: A549 lung carcinoma cells; experiment: In vitro cytotoxicity, MTT assay, A549; format: cell-based, human; settings: 24 h, read-out: IC50 ± SD, A549
Protocol: (§1) Figure S1. […] The cells were plated at 96-well dishes and cultured according manufacturer instructions. The tested compounds were applied to the cells for 24 h in concentrations ranging from 0.01 to 50 µM. The tested compounds were applied to the cells for 24 h. The cytotoxicity was assessed by the MTT test, measurements were performed in triplicate, and each cytotoxicity experiment was repeated three times. The data are expressed as IC50 ± SD (μM).

[3] = test system: HeLa cervix epitheloid carcinoma cells; experiment: In vitro cytotoxicity, MTT assay, HeLa; format: cell-based, human; settings: 24 h, read-out: IC50 ± SD, HeLa
Protocol: as §1, with “S2.” for “S1.”

[4] = test system: G361 malignant melanoma cells; experiment: In vitro cytotoxicity, MTT assay, G361; format: cell-based, human; settings: 24 h, read-out: IC50 ± SD, G361
Protocol: as §1, with “S3.” for “S1.”

[5] = test system: A2780 ovarian carcinoma cells; experiment: In vitro cytotoxicity, MTT assay, A2780; format: cell-based, human; settings: 24 h, read-out: IC50 ± SD, A2780
Protocol: as §1, with “S4.” for “S1.”

[6] = test system: A2780cis cisplatin-resistant ovarian carcinoma cells; experiment: In vitro cytotoxicity, MTT assay, A2780cis; format: cell-based, human; settings: for IC50: 24 h, MTT, read-out: IC50 ± SD, A2780cis; for IC50(A2780cis)/IC50(A2780) ratio (resistance factor): in comparison with cisplatin
Protocol: as §1, with “S5.” for “S1.”

[7] = test system: LNCaP androgen-sensitive prostate adenocarcinoma cells; experiment: In vitro cytotoxicity, MTT assay, LNCaP; format: cell-based, human; settings: 24 h, read-out: IC50 ± SD, LNCaP
Protocol: as §1, with “S6.” for “S1.”

[8] = test system: THP-1 monocytic leukemia cells; experiment: In vitro cytotoxicity, WST-1 test, THP-1; format: cell-based, human; settings: 24 h, WST-1, serum-free medium; read-out: IC50 ± SD, THP-1
Protocol: as §1, with “S7.” for “S1.”

[9] = test system: primary human hepatocytes (HH1); experiment: Toxicity to primary human hepatocytes; format: cell-based; settings: 24 h, MTT; read-out: IC50 ± SD, HH1 (toxicity to primary human hepatocytes)
[10] = test system: TNF-α secretion, LPS-stimulated THP-1 cells; experiment: LPS-induced TNF-α secretion in THP-1 macrophages (ELISA); format: cell-based, human; settings: 0.2 μM; for increase of TNF-α secretion, factor in comparison to vehicle: LPS-activated macrophages, 24 h; for TNF-α secretion: 1 h pre-treatment, then LPS 24 h
Protocol: (§2) To determine the influence of the tested complexes on the TNF-α and IL-1β secretions, the human monocytic leukemia cell line THP-1 was used. The cells were cultivated at 37°C in the RPMI 1640 medium supplemented with 2 mM L-glutamine, 10% fetal bovine serum (FBS), 100 U/mL of penicillin and 100 μg/mL of streptomycin in a humidified atmosphere containing 5% CO2. The stabilized cells (3rd–20th passage) were split into microtitration plates to get a concentration of 100 000 cells/mL and the differentiation to macrophages was induced by a phorbol myristate acetate (PMA) as we described previously.
(§3) Differentiated macrophages were pretreated for 1 h with 0.2 μM solutions of the tested complexes, prednisone or CuSO4 · 5 H2O dissolved in DMSO (the final DMSO concentration was 0.1%) and with 0.1% DMSO solution itself (the experimental group called vehicle); the given concentrations of the tested compounds lack the cytotoxic effect. The inflammatory response was triggered by adding 1.0 μg/mL lipopolysaccharide (LPS) dissolved in water to pretreated macrophages, control cells were without the LPS treatment. Each experiment was repeated three-times.
(§4) Macrophages pretreated with the tested compounds for 1 h were incubated with LPS for next 24 h. After this period, the medium was collected and the concentration of TNF-α and IL-1β was measured by Instant ELISA kit (eBioscience, Vienna, Austria) according to the manufacturer’s manual.

[11] = test system: IL-1β secretion, LPS-stimulated THP-1 cells; experiment: LPS-induced IL-1β secretion in THP-1 macrophages (ELISA); format: cell-based, human; settings: 0.2 μM; for increase of IL-1β secretion, factor: LPS-activated cells, 24 h; for IL-1β secretion: 1 h pre-treatment, then LPS 24 h
Protocol: as §2, §3, §4

[12] = test system: THP-1 monocytic leukemia cells; design: method as in PMID 15139770; settings: cited from earlier work
[13] = test system: aryl hydrocarbon receptor (AhR) transcriptional activity; experiment: AhR gene reporter assay in AZ-AhR cells; format: cell-based, human; settings: 24 h; complexes 10 nM – 5 μM; TCDD 10 pM – 10 μM
[14] = test system: glucocorticoid receptor (GR) transcriptional activity; settings: 24 h; complexes 10 nM – 5 μM; DEX 10 pM – 100 nM

| SMILES | IC50 [2] [nM] | IC50 [3] [nM] | IC50 [4] [nM] | IC50 [5] [nM] | IC50 [6] [nM] | IC50 [7] [nM] | IC50 [8] [nM] | IC50 [9] [nM] | increase of TNF-α secretion, factor in comparison to vehicle [10] | increase of IL-1β secretion, factor [11] | other results |
| --- | --- | --- | --- | --- | --- | --- | --- | --- | --- | --- | --- |
| O=c1c(O)c(-c2ccccc2)[nH]c2ccccc12 [Hqui, 2-phenyl-3-hydroxy-4(1H)-quinolinone] |  |  |  |  |  |  |  |  |  |  | IC50 ([1]; Homo sapiens): > 50000 nM |
| Cc1cc2cccnc2c2ncccc12.F[B-](F)(F)F.O.O=c1c([O-])c(-c2ccccc2)[nH]c2ccccc12.[Cu+2] [compound 4, [Cu(qui)(mphen)]BF4 · H2O] | 2500 ± 600 | 2400 ± 1000 | 530 ± 90 | 360 ± 50 | 560 ± 150 | 1500 ± 600 | 1100 ± 400 | 9300 ± 600 | 1.6 | 1.6 |  |
| O.O.O.O.O.O=S(=O)([O-])[O-].[Cu+2] [CuSO4·5H2O, reference compound] |  |  |  |  |  |  |  |  | 1.4 | ~1.6 |  |
| O.O=[N+]([O-])[O-].O=c1c([O-])c(-c2ccccc2)[nH]c2ccccc12.[Cu+2].c1cnc2c(c1)ccc1cccnc12 [compound 1, [Cu(qui)(phen)]NO3 · H2O] | 2500 ± 400 | 2900 ± 300 | 820 ± 150 | 650 ± 280 | 830 ± 300 | 2400 ± 600 | 2000 ± 100 | > 10000 | ~ 1.25 | practically no influence |  |
| O.O=[N+]([O-])[O-].O=c1c([O-])c(-c2ccccc2)[nH]c2ccccc12.[Cu+2].c1ccc(-c2ccnc3c2ccc2c(-c4ccccc4)ccnc23)cc1 [compound 5, [Cu(qui)(bphen)]NO3 · H2O] | 1700 ± 300 | 1000 ± 200 | 960 ± 30 | 660 ± 70 | 730 ± 80 | 740 ± 210 | 570 ± 80 | 3600 ± 200 | 1.8 | 6.9 | IC50(A2780cis)/IC50(A2780) ratio (resistance factor) [6]: practically two times lower; TNF-α secretion [10]: 2873 ± 238 pg/mL; IL-1β secretion [11]: 1177 ± 128 pg/mL |
| F[B-](F)(F)F.F[B-](F)(F)F.[Cu+2] [Cu(BF4)2 · H2O] |  |  |  |  |  |  |  |  |  |  | IC50 [1]: > 50000 nM |
| C[C@]12C=CC(=O)C=C1CC[C@@H]1[C@@H]2C(=O)C[C@@]2(C)[C@H]1CC[C@]2(O)C(=O)CO [prednisone, reference compound] |  |  |  |  |  |  |  |  |  |  | TNF-α secretion [10]: 1173 ± 85 pg/mL; IL-1β secretion [11]: 118.5 ± 4.8 pg/mL |
| Cc1cc2cccnc2c2ncccc12 [mphen, 5-methyl-1,10-phenanthroline] |  |  |  |  |  |  |  |  |  |  | IC50 ([1]; Homo sapiens): > 50000 nM |
| N.N.[Cl][Pt][Cl] [cisplatin, reference compound] | 25800 ± 7100 | 10000 ± 2600 | 3400 ± 100 | 12000 ± 800 | 27000 ± 4600 | 3800 ± 1500 |  |  |  |  | IC50 [12]: 2000 nM |
| c1ccc(-c2ccnc3c2ccc2c(-c4ccccc4)ccnc23)cc1 [bphen, bathophenanthroline] |  |  |  |  |  |  |  |  |  |  | IC50 [1]: > 50000 nM |
| O=[N+]([O-])[O-].O=[N+]([O-])[O-].[Cu+2] [Cu(NO3)2 · 3H2O] |  |  |  |  |  |  |  |  |  |  | IC50 [1]: > 50000 nM |
| Clc1cc2c(cc1Cl)Oc1cc(Cl)c(Cl)cc1O2 [TCDD, 2,3,7,8-tetrachlorodibenzo-p-dioxin] |  |  |  |  |  |  |  |  |  |  | luciferase activity in AZ-AhR cells [13]: strongly, dose-dependently induced |
| C[C@@H]1C[C@H]2[C@@H]3CCC4=CC(=O)C=C[C@]4(C)[C@@]3(F)[C@@H](O)C[C@]2(C)[C@@]1(O)C(=O)CO [DEX, dexamethasone] |  |  |  |  |  |  |  |  |  |  | luciferase activity in AZ-GR cells [14]: strongly, dose-dependently induced |
| c1cnc2c(c1)ccc1cccnc12 [phen, 1,10-phenanthroline] |  |  |  |  |  |  |  |  |  |  | IC50 ([1]; Homo sapiens): > 50000 nM |
| F[B-](F)(F)F.O=c1c([O-])c(-c2ccccc2)[nH]c2ccccc12.[Cu+2].c1ccc(-c2ccnc3c2ccc2c(-c4ccccc4)ccnc23)cc1 [compound 6, [Cu(qui)(bphen)]BF4] | 1300 ± 400 | 1300 ± 400 | 720 ± 60 | 570 ± 110 | 700 ± 200 | 620 ± 80 | 560 ± 100 | 5300 ± 300 | 2 | 6.4 | IC50(A2780cis)/IC50(A2780) ratio (resistance factor) [6]: practically two times lower; TNF-α secretion [10]: 3284 ± 139 pg/mL; IL-1β secretion [11]: 1087 ± 101 pg/mL |
| Cc1cc2cccnc2c2ncccc12.O.O=[N+]([O-])[O-].O=c1c([O-])c(-c2ccccc2)[nH]c2ccccc12.[Cu+2] [compound 3, [Cu(qui)(mphen)]NO3 · H2O] | 2500 ± 600 | 2600 ± 400 | 530 ± 220 | 380 ± 30 | 780 ± 70 | 2100 ± 600 | 1500 ± 300 | > 10000 | ~ 1.25 | practically no influence |  |
| F[B-](F)(F)F.O=c1c([O-])c(-c2ccccc2)[nH]c2ccccc12.[Cu+2].c1cnc2c(c1)ccc1cccnc12 [compound 2, [Cu(qui)(phen)]BF4] | 3900 ± 1200 | 2700 ± 600 | 640 ± 200 | 520 ± 100 | 1700 ± 600 | 1900 ± 600 | 1700 ± 200 | 20400 ± 1200 | ~ 1.25 | practically no influence |  |

Reference: publication PMC3556092, “Cellular responses induced by Cu(II) quinolinonato complexes in human tumor and hepatic cells” (Chemistry Central Journal, 2012)
